From patent US7820172B1, “Laminin-derived multi-domain peptides” (BioSurface Engineering Technologies, Inc., priority 2006, dated 2010)
Positions of bridges follow the written chain, without caps; N, C: chain ends. Non-standard residues stand in square brackets, D forms with d. Residues, ends and D or L forms follow the SMILES beside them. Chains are numbered I, II in the order given. No end group written: not given here. Ahx = NCCCCCC(=O)O

How the values were obtained:
cell binding = assay: Competitive blocking of cell binding to LA2; format: cell-based; details: binding not eliminated by either agent individually
RMEC cells = format: cell-based, rat; details: for increase in percentage cells bound on polystyrene: 0.1 μg/ml, two hours, as a percentage of uncoated controls; for cell binding to the polystyrene surface: RMEC cells, versus uncoated controls
Experimental: Cells Adhesion and Proliferation on LA2 coated surfaces. To evaluate the effects of LA2-coating on cell attachment, untreated polystyrene 96-well plates were coated with LA2 in concentration indicated in figures. In the cases of EVA films, ePTFE and titanium, the materials were placed in 48- or 96-well plate and coated with 2 μg/ml of LA2. Cell suspension in density of 1×10^6/ml was added to the wells. […] Cell number on the surface was determined using CyQuant® cell Proliferation Kit (Molecular Probes, Eugene, Oreg.). To detect cell adhesion on the titanium and ePTFE surfaces, cells were fixed with 4% buffered formalin and stained with bis-benzamide, viewed using fluorescence microscopy, and images recorded on digital media. In the cell proliferation studies, EVA films (6.5 mm diameter), similar to those used in the cell adhesion studies, were coated with 2 μg LA2/ml. The coated films were placed in untreated polystyrene 96-well plate and A7R5 cell suspension in density of 1×10^5/ml was added to the wells. After incubation of 3 hours, 3 and 7 days, the EVA films were transferred to a new 96-well plate and cell number on the film was determined using CyQuant® cell Proliferation Kit.
YIGSR is a different laminin adhesion sequence that has been used to increase cell attachment to device surfaces. […] Since cells could bind to LA2 via cell surface heparan sulfate, the heparin binding domain of LA2 was blocked by coating peptide on substrate-adsorbed heparin.

Male SD rats = assay: Tissue integration of LA2-coated ePTFE in rat subcutaneous implant model; format: in vivo; details: two weeks after implant
Experimental: Tissue integration of LA2-coated material in rat implant model. Male SD rats were anesthetized using an intraperitoneal administration of ketamine (40 mg/kg) and xylazine (5 mg/kg). Excess hair was removed and sterile surgical sites were prepared on the lower back. Subcutaneous pouches, approximately 3 cm long, were made through a skin incision using a hemostat and blunt dissection. A wafer (1×1.5 cm) of porous ePTFE was introduced into a subcutaneous pouch. The pouches were positioned on the upper flanks on either side of the backbone, with one wafer coated with MD LA2 and the other wafer uncoated. After the implant, the incision was closed with stainless steel surgical clips. Animals were assigned to experiment groups randomly. Each animal received bilateral subcutaneous implants. There were 8 implant sites for each treatment. After 14 days, animals were euthanized and the ePTFE implants were surgically recovered and processed for subsequent staining with hemotoxylin and eosin.
We hypothesized that ePTFE coated with LA2 would display improved tissue integration. […] In this analysis, the depth of tissue penetration was monitored by histomorphometric methods and scored on a scale of 1-4 (in 25% increments).

C2C12 cells = assay: Attachment of C2C12 cells to coated polystyrene; format: cell-based, murine
Experimental: FIG. 1. Microphotographs of C2C12 cell on LA2 polystyrene. Murine myoblast C2C12 cells were seeded on uncoated polystyrene (A), or polystyrene coated 0.05-(B), 0.2-(C), and 0.4 (D) μg/ml LA2. Three hours after cell seeding, the materials were washed with PBS and micrographs taken with phase contrast optics. Original magnification 200×.
FIG. 2. Attachment of C2C12 cells to LA2 or SIKVAV (SEQ ID NO:16) coated polystyrene. C2C12 cells were seeded on polystyrene surface coated with LA2 (A) or SIKVAV (SEQ ID NO:16) (B). Three hours after seeding, unbound cells were removed by rinsing, and relative cell number determined using a fluorescent assay as described.
Cells Adhesion and Proliferation on LA2 coated surfaces. To evaluate the effects of LA2-coating on cell attachment, untreated polystyrene 96-well plates were coated with LA2 in concentration indicated in figures. […] Cell number on the surface was determined using CyQuant® cell Proliferation Kit (Molecular Probes, Eugene, Oreg.). To detect cell adhesion on the titanium and ePTFE surfaces, cells were fixed with 4% buffered formalin and stained with bis-benzamide, viewed using fluorescence microscopy, and images recorded on digital media. […] After incubation of 3 hours, 3 and 7 days, the EVA films were transferred to a new 96-well plate and cell number on the film was determined using CyQuant® cell Proliferation Kit.

cell attachment = assay: Related cell binding assays comparing coatings (cell type not stated); format: cell-based; details: coating

Row | Molecule | level of cell binding when used as competitive blocking agent (cell binding) | increase in percentage cells bound on polystyrene (RMEC cells) | cell binding to the polystyrene surface (RMEC cells) | further results
1 | heparin | reduced the level of cell binding | – | – | –
2 | CC[C@H](C)[C@H](NC(=O)[C@H](CCCNC(=N)N)NC(=O)[C@H](CCC(=O)O)NC(=O)[C@H](CC(C)C)NC(=O)[C@H](CCCCN)NC(=O)[C@H](CCCNC(=N)N)NC(=O)[C@H](CCCCN)NC(=O)[C@H](CCCNC(=N)N)NC(=O)CCCCCNC(=O)CCCCCNC(=O)CCCCCNC(=O)[C@H](CCCCNC(=O)[C@H](C)NC(=O)[C@H](C)NC(=O)[C@@H](NC(=O)[C@H](C)NC(=O)[C@@H](NC(=O)[C@H](CCCCN)NC(=O)[C@@H](NC(=O)[C@@H](N)CO)[C@@H](C)CC)C(C)C)C(C)C)NC(=O)[C@H](C)NC(=O)[C@H](C)NC(=O)[C@@H](NC(=O)[C@H](C)NC(=O)[C@@H](NC(=O)[C@H](CCCCN)NC(=O)[C@@H](NC(=O)[C@@H](N)CO)[C@@H](C)CC)C(C)C)C(C)C)C(=O)N[C@@H](C)C(=O)N[C@@H](CCCNC(=N)N)C(N)=O [LA2, H-SIKVAVAAK(H-SIKVAVAA)-Ahx-Ahx-Ahx-RKRKLERIAR-NH2] (I: H-SIKVAVAAK[Ahx][Ahx][Ahx]RKRKLERIAR-NH2 / II: H-SIKVAVAA; amide I:9-II:C) | – | over 150% | – | inflammation (Male SD rats): little evidence of inflammation
3 | SIKVAV (Cellular attachment peptide sequence) | reduced the level of cell binding | – | – | coating concentration required to achieve the same levels of cell attachment (C2C12 cells; C2C12, polystyrene (FIG. 2)): 100 µg/mL; cell attachment compared to uncoated polystyrene (C2C12 cells; C2C12 cells, coated polystyrene, 3 hours): able to increase cell attachment
4 | SEQ ID NO:25 (KPVSLSYRAPARFFESHVA; Random sequence) | – | – | did not support cell binding | –
5 | H-YIGSRAAK(H-YIGSRAA)-Ahx-Ahx-Ahx-RKRKLERIAR-NH2 (chain 1 H-YIGSRAAK[Ahx][Ahx][Ahx]; also: branched: chain 2 on Lys8 side chain of chain 1, chain 1 C-terminus joined to chain 3 N-terminus via Ahx-Ahx-Ahx) [MD Peptide 2, similar multi-domain peptide containing YIGSR] | – | over 50% | substantially more effective than uncoated controls | cell attachment versus linear SIKVAV, dimerized SIKVAV and random-sequence peptides (cell attachment): more effective
6 | SEQ ID NO:26 (DTAYKDWPNLFREIR; Random sequence) | – | – | did not support cell binding | –
